These results are taken from paper PMC12288460, “The Agrobacterium fabrum efflux pump PecM is produced in response to the plant exudate 4-hydroxybenzaldehyde to avoid disruption of central metabolism” (Journal of Bacteriology, 2025).

This experiment concerns the target T1, PecS (Agrobacterium fabrum, UniProt Q7D1T4).
T1 construct: full length, N-terminal His6-tag kept (pET100), E. coli BL21(DE3)pLysS; 18,923 Da tagged; dimer by known biology of MarR family
Put plainly: DNase I footprinting of pecS-pecM DNA, loss of PecS protection. The settings on record: 86 nM PecS, 250 mM Tris pH 8.0, 100 mM NaCl, room temperature, relief of DNA binding.

Molecules are shown by their SMILES.

T1 sequence (Q7D1T4 entry or part of it): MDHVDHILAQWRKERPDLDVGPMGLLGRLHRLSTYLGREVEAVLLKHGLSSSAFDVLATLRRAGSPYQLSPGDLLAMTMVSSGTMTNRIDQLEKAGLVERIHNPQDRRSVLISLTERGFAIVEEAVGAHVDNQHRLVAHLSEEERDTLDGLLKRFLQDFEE

For the compound `O=c1[nH]c(=O)c2[nH]c(=O)[nH]c2[nH]1` [urate], the “DNase I footprinting of pecS-pecM DNA, loss of PecS protection” value (2.5 mM urate (dissolved in 0.4 M NaOH)) was “This result indicates a direct interaction between these purines and PecS”.

For the compound `O=c1[nH]c(=O)c2[nH]cnc2[nH]1` [xanthine], the “DNase I footprinting of pecS-pecM DNA, loss of PecS protection” value (10 mM xanthine (dissolved in 0.4 M NaOH)) is “This result indicates a direct interaction between these purines and PecS”.
